Results as given in patent US20100267713A1, “4,4-DISUBSTITUTED PIPERIDINES” (priority 2007, published 2010).

Target: T1, renin (Homo sapiens, UniProt P00797)
T1 construct: This test measures the formation of angiotensin I in human plasma; from tissue; host or cells: human plasma
T1 sequence (P00797 67-406): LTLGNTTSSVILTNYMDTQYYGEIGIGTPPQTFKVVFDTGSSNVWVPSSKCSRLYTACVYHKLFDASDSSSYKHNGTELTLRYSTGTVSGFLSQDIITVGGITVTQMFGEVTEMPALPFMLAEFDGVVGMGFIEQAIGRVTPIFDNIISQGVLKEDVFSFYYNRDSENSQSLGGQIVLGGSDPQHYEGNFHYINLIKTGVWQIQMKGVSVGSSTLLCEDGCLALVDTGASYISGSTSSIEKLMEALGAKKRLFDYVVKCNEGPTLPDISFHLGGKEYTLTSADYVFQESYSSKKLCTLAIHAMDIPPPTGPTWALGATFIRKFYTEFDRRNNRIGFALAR
Assay: formation of angiotensin I in human plasma, radioimmunoassay (Nussberger et al.)
Type: biochemical
Details: read-out: IC50, inhibition of the formation of angiotensin I
Experimental: The effect of renin inhibitors is detected inter alia experimentally by means of in vitro tests where the reduction in the formation of angiotensin I is measured in various systems (human plasma, purified human renin together with synthetic or natural renin substrate). The following in vitro test of Nussberger et al. (1987) J. Cardiovascular Pharmacol., Vol. 9, pp. 39-44, is used inter alia. This test measures the formation of angiotensin I in human plasma. The amount of angiotensin I formed is determined in a subsequent radioimmunoassay. The effect of inhibitors on the formation of angiotensin I is tested in this system by adding various concentrations of these substances. The IC50 is defined as the concentration of the particular inhibitor which reduces the formation of angiotensin I by 50%. The compounds of the present invention show inhibitory effects in the in vitro systems at minimal concentrations of about 10^−6 to about […].

IC50: 48 nM
Structure (SMILES): CCCc1nc(COC[C@@H](C)OCC)ccc1[C@@]1(O)CCNC[C@@H]1OCc1ccc2c(c1)N(CCCOC)CCO2 [Example 501, (3′S,4′S)-6-((R)-2-Ethoxy-propoxymethyl)-3′-[4-(3-methoxy-propyl)-3,4-dihydro-2H-benzo[1,4]oxazin-6-ylmethoxy]-2-propyl-2′,3′,5′,6′-tetrahydro-1′H-[3,4′]bipyridinyl-4′-ol]
